Test results taken from US20140148422A1, “TREATMENT OF GLUCOSE INTOLERANCE” (AtheroNova Operations, Inc., priority 2009, published 2014).
Where “and” joins values, the source holds several entries; their conditions need not be identical. Equal values may be shown once. Entries after “also recorded” stand apart in the source; their conditions may differ. Read-outs that look alike come from different tables or passages of the source.

Assays:
Fat Metabolism in Mice = assay: Determination of ketonuria in mice (urine ketone bodies, Ketostix strips); format: in vivo; parameters: key to Ketone level: —: No detectable levels of Ketone in the urine; Trace amount of Ketone (6 mg/dL) in the urine; Small amount of Ketone (15 mg/dL) in the urine; settings: week 23; for Ketone level: urine of individual mice; for Average Ketone levels: urine
Experimental: In a preliminary in vivo experiment, four groups of mice (each group including three or four mice of same genetic background) were tested for levels of ketone bodies in their urine after consumption of the high fat and/or high cholesterol rodent chow diet supplemented with or without at least on biocompatible emulsifier. In this study, all mice in all groups (all being eight weeks old when this study commenced) were fed with high fat/high cholesterol chow diet (Catalog No. 12079B from Research Diets) for eight weeks. Starting at week 9, the diet of all mice was switched to low fat chow (AIN-76A Rodent Diet from Research Diets). For 15 weeks thereafter, the control mice of group A were fed with pure low fat chow while the mice in treated groups, B, C and D, were fed with low fat chow supplemented with at least one biocompatible emulsifier as follow: Group B mice were fed with low fat chow supplemented with 0.5% Hyodeoxycholic acid (HDCA) and 1.25% D-Limonene (DLM). Group C mice were fed with low fat chow supplemented with 5% DLM. Group D mice were fed with low fat chow supplemented with 1.25% HDCA.
At week 23 of the experiment, urine samples from each mice were taken and analyzed for ketone body levels using Ketostix® stips.

[1] = taken orally, cited from earlier work
[2] = Escape of oral HDCA from the entero-hepatic circulation into the systemic circulation; format: in vivo, human; settings: 750 mg/day dose, average adult person weighing 70 kg, assuming about 70% enters systemic circulation
Excerpt: (§1) It is know in the art that when hyodeoxycholic acid (a hydrophilic bile acid) is taken orally, it is absorbed through the gut and reaches the liver, but then a large fraction of it, up to 70%, escapes the entero-hepatic circulation, and enters the systemic circulation. See Salvioli et al., European Journal of Clinical Investigation, Vol. 18(1), pp. 22-28 (February 1988). Therefore, the induction of ketonuria is an indication that HDCA upon becoming bioavailable the systemic circulation is able to induce dissolution of the body fat.
(§2) Considering that about 70% of HDCA escapes the entero-hepatic pathway and enters into the systemic blood circulation, the 750 mg/day dose of HDCA averages to concentration of about 270 μM in the blood of an average adult person weighing 70 kg, as compared to normal levels of bile salts in the blood which are less than 10 μM. Some embodiments described herein are effective to mimic the high levels of bile salts observed as safe in Example 2, and in so doing are effective to result in the treatment of obesity.

[3] = tested on: C57BL/6 LDL r-KO knockout mice; settings: HDCA fed, relative to mice not provided HDCA; cited from earlier work
Fat Metabolism In Human = assay: Ketonuria in an individual taking oral HDCA (weekly Ketostix testing); format: in vivo; settings: 250 mg orally three times a day (750 mg/day), 10 weeks, no caloric restriction, one individual
Excerpt: as §1, §2
An in vivo experiment was performed to assess the effectiveness of HDCA in causing fat catabolism and treating obesity in human. In this experiment, an overweight individual otherwise healthy took 250 mg of HDCA three times a day (750 mg/day) for a period of 10 weeks without caloric restriction.

[4] = wild-type mice provided dietary HDCA; cited from earlier work
[5] = drug compared with placebo; cited from earlier work
[6] = low fat chow + 5% DLM (Group C)
[7] = low fat chow + 1.25% HDCA (Group D)

C=C(C)[C@H]1CC=C(C)CC1 [DLM, D-Limonene]
Ketone level (Fat Metabolism in Mice; [6]): — and T (Trace amount of Ketone (6 mg/dL) in the urine) (2×) and S (Small amount of Ketone (15 mg/dL) in the urine)
Average Ketone levels (Fat Metabolism in Mice; [6]): 42

C[C@H](CCC(=O)O)[C@H]1CC[C@H]2[C@@H]3C[C@H](O)[C@@H]4C[C@H](O)CC[C@]4(C)[C@H]3CC[C@]12C [HDCA, hyodeoxycholic acid]
Fraction escaping the entero-hepatic circulation and entering the systemic circulation [1]: about 70%
Fraction escaping the entero-hepatic circulation and entering the systemic circulation ([1]; listed as hyodeoxycholic acid): up to 70%
Average concentration in the blood [2]: about 270 μM
Rate of formation of atherosclerotic plaque [3]: reduced rate of formation of atherosclerotic plaque
Ketone level (Fat Metabolism in Mice; [7]): — and T (Trace amount of Ketone (6 mg/dL) in the urine) and S (Small amount of Ketone (15 mg/dL) in the urine)
Average Ketone levels (Fat Metabolism in Mice; [7]): 100
Ketonuria / ketotic state (Fat Metabolism In Human): mild ketonuria; also recorded: mild ketotic state
Plasma levels [4]: up to 50 μM

CCN[C@@H](C)Cc1cccc(C(F)(F)F)c1 [dexfenfluramine]
Weight loss [5]: about 5 % of body weight

CCCCCCCCCCC[C@@H](C[C@@H]1OC(=O)[C@H]1CCCCCC)OC(=O)[C@H](CC(C)C)NC=O [orlistat]
Weight loss [5]: about 5 % of body weight

CC(C)(N)Cc1ccccc1 [phentermine]
Weight loss [5]: about 5 % of body weight

CC(C)CC(N(C)C)C1(c2ccc(Cl)cc2)CCC1 (centres unmarked) [sibutramine]
Weight loss [5]: about 5 % of body weight
